Test results as given in ChEMBL document CHEMBL4725318, “New vinyl-1,2,4-triazole derivatives as antimicrobial agents: Synthesis, biological evaluation and molecular docking studies” (2020).
Converted amounts (≈) assume the structure as drawn.

Legend:
Assay type in all cases: functional
[1] = tested on: Bacillus subtilis; experiment: Bactericidal activity against Bacillus subtilis
[2] = tested on: Xanthomonas campestris; experiment: Antibacterial activity against Xanthomonas campestris by microdilution method
[3] = tested on: Pectobacterium carotovorum; experiment: Bactericidal activity against Erwinia carotovora
[4] = tested on: Pseudomonas fluorescens; experiment: Bactericidal activity against Pseudomonas fluorescens
[5] = tested on: Erwinia amylovora; experiment: Bactericidal activity against Erwinia amylovora
[6] = tested on: Pseudomonas fluorescens; experiment: Antibacterial activity against Pseudomonas fluorescens by microdilution method
[7] = tested on: Talaromyces funiculosus; experiment: Fungicidal activity Penicillium funiculosum
[8] = tested on: Aspergillus fumigatus; experiment: Antifungal activity Aspergillus fumigatus by microdilution method
[9] = tested on: Aspergillus versicolor; experiment: Antifungal activity Aspergillus versicolor by microdilution method
[10] = tested on: Penicillium ochrochloron; experiment: Antifungal activity Penicillium ochrochloron by microdilution method
[11] = tested on: Talaromyces funiculosus; experiment: Antifungal activity Penicillium funiculosum by microdilution method
[12] = tested on: Aspergillus fumigatus; experiment: Fungicidal activity Aspergillus fumigatus
[13] = tested on: Aspergillus ochraceus; experiment: Antifungal activity Aspergillus ochraceus by microdilution method
[14] = tested on: Trichoderma viride; experiment: Fungicidal activity Trichoderma viride
[15] = tested on: Penicillium cyclopium; experiment: Fungicidal activity Penicillium verrucosum var. cyclopium
[16] = tested on: Erwinia amylovora; experiment: Antibacterial activity against Erwinia amylovora by microdilution method
[17] = tested on: Penicillium ochrochloron; experiment: Fungicidal activity Penicillium ochrochloron
[18] = tested on: Xanthomonas campestris; experiment: Bactericidal activity against Xanthomonas campestris
[19] = tested on: Aspergillus niger; experiment: Fungicidal activity Aspergillus niger
[20] = tested on: Trichoderma viride; experiment: Antifungal activity Trichoderma viride by microdilution method
[21] = tested on: Bacillus subtilis; experiment: Antibacterial activity against Bacillus subtilis by microdilution method
[22] = tested on: Aspergillus ochraceus; experiment: Fungicidal activity Aspergillus ochraceus
[23] = tested on: Aspergillus niger; experiment: Antifungal activity Aspergillus niger by microdilution method
[24] = tested on: Penicillium cyclopium; experiment: Antifungal activity Penicillium verrucosum var. cyclopium by microdilution method
[25] = tested on: Aspergillus versicolor; experiment: Fungicidal activity Aspergillus versicolor
[26] = tested on: Pectobacterium carotovorum; experiment: Antibacterial activity against Erwinia carotovora by microdilution method

Row | Compound | MIC [2] [µM] | MIC [6] [µM] | MIC [16] [µM] | MBC [1] [µM] | MBC [3] [µM] | MBC [4] [µM] | MBC [5] [µM] | MFC [7] [µM] | MIC [8] [µM] | MIC [9] [µM] | MIC [10] [µM] | MIC [11] [µM] | MFC [12] [µM] | MIC [13] [µM] | MFC [14] [µM] | MFC [15] [µM] | MFC [17] [µM] | MBC [18] [µM] | MFC [19] [µM] | MIC [20] [µM] | further results
1 | CC(C)(C)c1cc(/C=C(/C(=O)c2ccc(Cl)cc2Cl)n2cncn2)cc(C(C)(C)C)c1O | 17 (≈ 8.03 µg/mL) | 9 (≈ 4.25 µg/mL) | 17 (≈ 8.03 µg/mL) | 17 (≈ 8.03 µg/mL) | 9 (≈ 4.25 µg/mL) | 9 (≈ 4.25 µg/mL) | 17 (≈ 8.03 µg/mL) | 160 (≈ 75.6 µg/mL) | 80 (≈ 37.8 µg/mL) | 80 (≈ 37.8 µg/mL) | 80 (≈ 37.8 µg/mL) | 120 (≈ 56.7 µg/mL) | 160 (≈ 75.6 µg/mL) | 60 (≈ 28.3 µg/mL) | 80 (≈ 37.8 µg/mL) | 320 (≈ 151 µg/mL) | 160 (≈ 75.6 µg/mL) | 17 (≈ 8.03 µg/mL) | 160 (≈ 75.6 µg/mL) | 30 (≈ 14.2 µg/mL) | MIC [21]: 17 µM (≈ 8.03 µg/mL); MFC [22]: 160 µM (≈ 75.6 µg/mL); MIC [23]: 80 µM (≈ 37.8 µg/mL); MIC [24]: 160 µM (≈ 75.6 µg/mL); MFC [25]: 160 µM (≈ 75.6 µg/mL); MIC [26]: 4.5 µM (≈ 2.13 µg/mL)
2 | CN(C)c1ccc(/C=C(/C(=O)c2ccc3ccccc3c2)n2cncn2)cc1 | 2.7 (≈ 0.995 µg/mL) | 2.7 (≈ 0.995 µg/mL) | 2.7 (≈ 0.995 µg/mL) | 5.4 (≈ 1.99 µg/mL) | 2.7 (≈ 0.995 µg/mL) | 2.7 (≈ 0.995 µg/mL) | 5.4 (≈ 1.99 µg/mL) | 270 (≈ 99.5 µg/mL) | 140 (≈ 51.6 µg/mL) | 140 (≈ 51.6 µg/mL) | 140 (≈ 51.6 µg/mL) | 190 (≈ 70 µg/mL) | 270 (≈ 99.5 µg/mL) | 70 (≈ 25.8 µg/mL) | 140 (≈ 51.6 µg/mL) | 270 (≈ 99.5 µg/mL) | 270 (≈ 99.5 µg/mL) | 5.4 (≈ 1.99 µg/mL) | 270 (≈ 99.5 µg/mL) | 70 (≈ 25.8 µg/mL) | MIC [21]: 5.4 µM (≈ 1.99 µg/mL); MFC [22]: 140 µM (≈ 51.6 µg/mL); MIC [23]: 140 µM (≈ 51.6 µg/mL); MIC [24]: 140 µM (≈ 51.6 µg/mL); MFC [25]: 270 µM (≈ 99.5 µg/mL); MIC [26]: 2.7 µM (≈ 0.995 µg/mL)
3 | c1ccc(-c2ccc(C(c3ccccc3)n3ccnc3)cc2)cc1 (centres undefined) [BIFONAZOLE] | – | – | – | – | – | – | – | 810 (≈ 251 µg/mL) | 480 (≈ 149 µg/mL) | 320 (≈ 99.3 µg/mL) | 640 (≈ 199 µg/mL) | 640 (≈ 199 µg/mL) | 640 (≈ 199 µg/mL) | 480 (≈ 149 µg/mL) | 640 (≈ 199 µg/mL) | 640 (≈ 199 µg/mL) | 810 (≈ 251 µg/mL) | – | 640 (≈ 199 µg/mL) | 480 (≈ 149 µg/mL) | MFC [22]: 640 µM (≈ 199 µg/mL); MIC [23]: 480 µM (≈ 149 µg/mL); MIC [24]: 320 µM (≈ 99.3 µg/mL); MFC [25]: 640 µM (≈ 199 µg/mL)
4 | CC(=O)N1CCN(c2ccc(OCC3COC(Cn4ccnc4)(c4ccc(Cl)cc4Cl)O3)cc2)CC1 (centres undefined) [KETOCONAZOLE] | – | – | – | – | – | – | – | 940 (≈ 500 µg/mL) | 380 (≈ 202 µg/mL) | 380 (≈ 202 µg/mL) | 1880 (≈ 999 µg/mL) | 380 (≈ 202 µg/mL) | 940 (≈ 500 µg/mL) | 280 (≈ 149 µg/mL) | 2820 (≈ 1500 µg/mL) | 570 (≈ 303 µg/mL) | 2820 (≈ 1500 µg/mL) | – | 940 (≈ 500 µg/mL) | 1880 (≈ 999 µg/mL) | MFC [22]: 380 µM (≈ 202 µg/mL); MIC [23]: 380 µM (≈ 202 µg/mL); MIC [24]: 380 µM (≈ 202 µg/mL); MFC [25]: 940 µM (≈ 500 µg/mL)

Further lines, with some results ahead:

Row | MIC [2] [µM] | MIC [6] [µM] | MIC [16] [µM] | Compound | MBC [1] [µM] | MBC [3] [µM] | MBC [4] [µM] | MBC [5] [µM] | MFC [7] [µM] | MIC [8] [µM] | MIC [9] [µM] | MIC [10] [µM] | MIC [11] [µM] | MFC [12] [µM] | MIC [13] [µM] | MFC [14] [µM] | MFC [15] [µM] | MFC [17] [µM] | MBC [18] [µM] | MFC [19] [µM] | MIC [20] [µM] | further results
5 | 0.2 (≈ 0.0699 µg/mL) | 8.6 (≈ 3 µg/mL) | 0.25 (≈ 0.0874 µg/mL) | CC1(C)S[C@@H]2[C@H](NC(=O)[C@H](N)c3ccccc3)C(=O)N2[C@H]1C(=O)O [AMPICILLIN] | 0.2 (≈ 0.0699 µg/mL) | 0.2 (≈ 0.0699 µg/mL) | 8.6 (≈ 3 µg/mL) | 0.5 (≈ 0.175 µg/mL) | – | – | – | – | – | – | – | – | – | – | 0.2 (≈ 0.0699 µg/mL) | – | – | MIC [21]: 0.2 µM (≈ 0.0699 µg/mL); MIC [26]: 0.1 µM (≈ 0.0349 µg/mL)
6 | 0.1 (≈ 0.0323 µg/mL) | 0.5 (≈ 0.162 µg/mL) | 0.15 (≈ 0.0485 µg/mL) | O=C(N[C@H](CO)[C@H](O)c1ccc([N+](=O)[O-])cc1)C(Cl)Cl [CHLORAMPHENICOL] | 0.3 (≈ 0.0969 µg/mL) | 0.5 (≈ 0.162 µg/mL) | 0.5 (≈ 0.162 µg/mL) | 0.3 (≈ 0.0969 µg/mL) | – | – | – | – | – | – | – | – | – | – | 0.1 (≈ 0.0323 µg/mL) | – | – | MIC [21]: 0.3 µM (≈ 0.0969 µg/mL); MIC [26]: 0.25 µM (≈ 0.0808 µg/mL)
